Literature values in patent US20180256534A1, “KETAMINE AND […] 450 INHIBITOR COMBINATIONS” (SEQUOIA PHARMACEUTICALS, INC., priority 2015, published 2018).

What was measured:
[1] = test system: patients with major depressive disorders

## CNC1(c2ccccc2Cl)CCCCC1=O (centres unmarked) [ketamine]
[1]
  onset of rapid antidepressant effect: two
other
  serum concentration at which psychotomimetic symptoms appear: about 50 ng/ml
